Reference: article PMC4867112 (Biochemistry, 2016)

T1: DREAM(Δ64) (Mus musculus, UniProt Q9QXT8)
T1 sequence (Q9QXT8 65-256): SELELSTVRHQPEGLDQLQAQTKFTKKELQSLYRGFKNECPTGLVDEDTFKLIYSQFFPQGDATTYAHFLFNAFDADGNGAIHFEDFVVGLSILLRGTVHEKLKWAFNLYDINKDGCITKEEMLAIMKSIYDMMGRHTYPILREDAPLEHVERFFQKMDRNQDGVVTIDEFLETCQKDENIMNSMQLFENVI


Assays:
DREAM(Δ64) = target: T1, DREAM(Δ64); assay: Tb3+ luminescence decay titration; type: binding
[1] = target: the molecule itself; assay: fluorescence anisotropy decay

| Molecule | Kd (DREAM(Δ64)) | stoichiometry N [1] |
| --- | --- | --- |
| O=C(Nc1cc(C(F)(F)F)cc(C(F)(F)F)c1)Nc1c(Br)cc(Br)cc1-c1nn[nH]n1 [NS5806, 1-[2,4-dibromo-6-(1H-tetrazol-5-yl)-phenyl]-3-(3,5-bis-trifluoromethyl-phenyl)urea] | ~37 µM |  |
| DREAM(Δ64), mouse DREAM (downstream regulatory element antagonist modulator) construct lacking residues 1–64 (domain or fragment, UniProt Q9QXT8 65-256, looked up) SELELSTVRHQPEGLDQLQAQTKFTKKELQSLYRGFKNECPTGLVDEDTFKLIYSQFFPQGDATTYAHFLFNAFDADGNGAIHFEDFVVGLSILLRGTVHEKLKWAFNLYDINKDGCITKEEMLAIMKSIYDMMGRHTYPILREDAPLEHVERFFQKMDRNQDGVVTIDEFLETCQKDENIMNSMQLFENVI |  | 2 |
